The target of this test is Glutamate NMDA receptor. Put plainly: Displacement of [3H]TCP from the TCP site of NMDA receptor in rat brain homogenate. It counts as tissue-based. In general terms: In a radioligand displacement assay an active substance lowers the binding of a labelled ligand.

In the case of `c1csc(C2(c3cccs3)CC3c4ccccc4C2c2cccc[n+]23)c1` (configuration not stated), the IC50 (commonly the concentration at which inhibition is half-maximal) amounted to 0.0036 µM.
`OCCc1ccc(C2(c3ccc(CCO)s3)CC3c4ccccc4C2c2cccc[n+]23)s1` (configuration not stated) had an IC50 of 12.4 µM.
In the case of `FCCc1ccc(C2(c3cccs3)CC3c4ccccc4C2c2cccc[n+]23)s1` (stereo in doubt; 18), the concentration for half-maximal inhibition (IC50) is 0.047 µM.
Turning to `FCCc1ccc(C2(c3cccs3)CC3c4ccccc4C2c2cccc[n+]23)s1` (stereo in doubt; 19), the IC50 is 0.089 µM.
In turn, `OCCc1ccc(C2(c3cccs3)CC3c4ccccc4C2c2cccc[n+]23)s1` (stereo in doubt; 20) had an IC50 of 0.061 µM.
`OCCc1ccc(C2(c3cccs3)CC3c4ccccc4C2c2cccc[n+]23)s1` (stereo in doubt; 21) came in with an IC50 of 0.141 µM.
Regarding `c1ccc(C2(N3CCCCC3)CCCCC2)cc1` [PHENCYCLIDINE], the half-maximal inhibitory concentration (IC50) is 0.047 µM. Against the preceding compound, the IC50 is about 3-fold lower.
